# In patent publication US20080311039A1, “Therapeutic and Prognostic Factor Yy1 in Human Cancer” (The Regents of the University of California, priority 2004, published 2008):
# Counter-ions that a name gives are not always drawn.
# Legend:
# [1] = system: PC-3 cells; assay: General S-nitrosylation of proteins in PC-3 by immunohistochemistry; format: cell-based, human; details: PC-3, after treatment with NO
# Method: (§1) Yin-Yang 1 (YY1) is a transcription factor that may activate or repress gene expression. […] In this study, we examined the direct S-nitrosylation of YY1 using the human prostate cancer cell line, PC-3, as model. Culture cells were incubated for 18 h in the presence of various concentrations of the NO donor DETANONOate (500 μM, 1000 μM) that sensitized PC-3 to Fas ligand- and TRAIL-mediated apoptosis. Subsequently, we analyzed for S-nitrosylation of YY1 by various methods. […] Noteworthy, significant constitutive S-nitrosylated proteins were detected. Further, using double immunofluorescence staining microscopy, we co-localized the presence of S-nitrosylated proteins and YY1.
# [2] = system: NF-κB; assay: Constitutive NF-κB activity in NHL cell lines; format: cell-based; details: NHL B cell lines
# Description: (§2) We have reported that rituximab triggers and inhibits anti-apoptotic gene products in NHL B-cell lines resulting in sensitization to drug-induced apoptosis (Alas et al., Clin. Cancer Res. 8:836, 2001; Jazirehi et al., Mol. Cancer. Therapy 2:1183, 2003; Vega et al., Oncogene 23:3530, 2004). This study investigated whether rituximab also modifies intracellular signaling pathways resulting in the sensitization of NHL cells to Fas-induced apoptosis. […] Downregulation of YY1 expression was the result of rituximab-induced inhibition of both the p38MAPK signaling pathway and constitutive NF-κB activity. The dual roles of NF-κB and YY1 in the regulation of Fas expression were corroborated by the use of a dominant-active inhibitor of NF-κB (Ramos IκB-ER mutant) and YY1 siRNA, respectively. The role of rituximab-mediated inhibition of the p38MAPK/NF-κB/YY1 pathways, which result in both Fas upregulation and sensitization to CH11-induced apoptosis, was corroborated by the use of specific chemical inhibitors directed at various targets of these pathways. […] Altogether, these findings provide a novel mechanism of rituximab-mediated signaling by inhibiting the p38MAPK/NF-κB/YY1 pathways and resulting in the sensitization of B NHL to Fas-induced apoptosis. […]
# [3] = system: Fas; assay: Fas expression in B-NHL cell lines (flow cytometry, RT-PCR, Western); format: cell-based
# Description: (§3) We have recently reported that treatment of B-Non-Hodgkin's Lymphoma (NHL) cell lines with rituximab (anti-CD20 antibody) sensitizes the tumor cells to both chemotherapy and Fas-induced apoptosis (Jazirehi and Bonavida, 2005, Oncogene, 24:2121-2145). This study investigated the underlying molecular mechanism of rituximab-mediated reversal of resistance. Treatment of B-NHL cell lines inhibited the constitutively activated NF-κB. Cells expressing dominant active IκB or treated with NF-κB specific inhibitors were sensitized to both drugs and FasL agonist mAb (CH-11)-induced apoptosis. Downregulation of Bcl-xL expression via inhibition of NF-κB activity correlated with chemosensitivity. […] The role of Bcl-xL expression in the regulation of Fas resistance was not apparent as Ramos HA-Bcl cells were as sensitive as the wild type cells to CH-11-induced apoptosis. […] These findings show two complementary mechanisms underlying the chemo-sensitization and immuno-sensitization of B NHL cells by rituximab via inhibition of NF-κB. The regulation of chemoresistance by NF-B is mediated via Bcl-xL expression whereas the regulation of Fas resistance by NF-B is mediated via YY1 expression and activity.
# (§4) We have reported that rituximab triggers and inhibits anti-apoptotic gene products in NHL B-cell lines resulting in sensitization to drug-induced apoptosis (Alas et al., Clin. Cancer Res. 8:836, 2001; Jazirehi et al., Mol. Cancer. Therapy 2:1183, 2003; Vega et al., Oncogene 23:3530, 2004). This study investigated whether rituximab also modifies intracellular signaling pathways resulting in the sensitization of NHL cells to Fas-induced apoptosis. […] Downregulation of YY1 expression was the result of rituximab-induced inhibition of both the p38MAPK signaling pathway and constitutive NF-κB activity. The dual roles of NF-κB and YY1 in the regulation of Fas expression were corroborated by the use of a dominant-active inhibitor of NF-κB (Ramos IκB-ER mutant) and YY1 siRNA, respectively. […]
# [4] = system: Ramos cells; assay: Chemosensitization to drug-induced apoptosis in Ramos B-NHL cells and variants; format: cell-based
# Description: as §3
# [5] = system: p38MAPK signaling pathway; assay: p38MAPK signaling pathway in NHL cell lines; format: cell-based; details: NHL B cell lines
# Description: as §2
# [6] = system: B-NHL cell lines; assay: Sensitization to CH-11 (FasL agonist mAb)-induced apoptosis in B-NHL cell lines; format: cell-based
# Description: as §3, §4
# [7] = system: YY1; assay: YY1 expression in NHL B-cell lines; format: cell-based; details: NHL B cell lines (Example 9)
# Description: as §2
# [8] = system: Ramos cells; details: B-NHL cell lines; Jazirehi and Bonavida 2005; cited from earlier work
# [9] = molecular target: T1, YY1 (Homo sapiens, UniProt P25490); assay: YY1 activity in B-NHL cell lines; format: cell-based; parameters: endogenous in cells; host or cells: 2F7, Ramos, Raji; rituximab-resistant Ramos RR1
# T1 sequence (P25490 whole entry): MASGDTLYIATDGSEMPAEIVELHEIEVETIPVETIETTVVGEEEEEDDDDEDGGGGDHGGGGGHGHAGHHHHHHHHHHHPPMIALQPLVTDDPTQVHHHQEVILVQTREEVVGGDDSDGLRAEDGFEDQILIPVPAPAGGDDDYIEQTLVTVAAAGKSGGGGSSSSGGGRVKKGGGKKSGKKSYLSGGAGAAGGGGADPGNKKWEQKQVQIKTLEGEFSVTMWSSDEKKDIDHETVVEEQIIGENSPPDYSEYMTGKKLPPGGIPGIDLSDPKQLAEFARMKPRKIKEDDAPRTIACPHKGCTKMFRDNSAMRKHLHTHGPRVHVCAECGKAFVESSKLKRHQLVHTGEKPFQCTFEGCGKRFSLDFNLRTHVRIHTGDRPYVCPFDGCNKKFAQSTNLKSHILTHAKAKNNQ
# Description: as §3, §4
# [10] = system: B-NHL cell lines; details: Jazirehi and Bonavida 2005; cited from earlier work
# [11] = system: DR5 promoter; assay: DR5 luciferase reporter system (pDR5 wild type) in PC3 cells; format: cell-based, human; details: PC3 transfected with pDR5, drug treatment vs basal
# Description: Another reporter gene system of use in the present invention utilized firefly luciferase luminescence as the reporter signal. In this reporter system, a wild-type DR5 promoter is operably linked to a luciferase reporter sequence. The wild-type DR5YY1 responsive site can be used in parallel with a DR5 promoter having a non-functional YY1 responsive site, for example, a 5′-deletion mutant-605 that includes the YY1 binding site (pDR5/-605) (described in Yoshida, et al, (2001) FEBS Letters, 507:381-385), or a DR5 promoter sequence missing the YY1 binding sequence (pDR5-YY1 mutant) (see, Huerta-Yepez, et al., AACR Abstract, 2005).
# However, many drug-resistant tumor cells are also resistant to TRAIL and such tumors require sensitization to reverse TRAIL resistance. […] This hypothesis was tested by examining a luciferase reporter system (pDR5 wild type) and plasmids in which the YY1-binding site was either deleted (pDR5/-605) and/or mutated (pDR5-YY1 mutant).
# [12] = system: YY1; assay: YY1 expression in rituximab-resistant Ramos RR1 cells; format: cell-based; details: alone or in combination with NF-κB inhibitors
# Method: Ramos and Ramos RR1 cells were treated with vincristine, VP-16, CDDP, and ADR, and the NF-κB inhibitors Bortezomib and DHMEQ.
# [13] = system: DR5; assay: DR5 expression in PC-3 cells by flow, RT-PCR and western; format: cell-based, human
# [14] = system: PC-3 cells; assay: Sensitization to TRAIL-induced apoptosis, prostate carcinoma cells; format: cell-based, human; details: 500 μM, 1000 μM, 18 h
# Method: as §1
# [15] = molecular target: T1, YY1; assay: YY1 DNA-binding activity in PC-3 cells; format: cell-based; parameters: endogenous in cells; host or cells: PC-3
# [16] = system: PC-3 cells; details: TRAIL-resistant human prostate carcinoma (CaP) cell lines; Huerta-Yepez et al. 2004; cited from earlier work
# [17] = system: NF-κB; assay: NF-κB DNA-binding activity in PC-3 cells; format: cell-based, human
# [18] = system: YY1; assay: YY1 expression in PC-3 cells
# [19] = system: PC-3 cells; assay: Sensitization to Fas ligand-mediated apoptosis, PC-3; format: cell-based, human; details: 500 μM, 1000 μM, 18 h
# Method: as §1
# [20] = system: YY1; assay: YY1 activity by luciferase reporter assay in PC-3
molecule,measurement,setting,value
"[N]=O [NO, nitric oxide]",general S-nitrosylation of proteins,[1],increased
rituximab: anti-CD20 antibody,constitutive NF-κB activity,[2],inhibition
same,Fas expression,[3]; B-NHL cell lines (Example 6),upregulation of Fas expression
same,Fas expression,"[3]; NHL cell lines, as early as 6 h post treatment, flow cytometry, RT-PCR, Western",up-regulated
same,sensitization to drug-induced apoptosis,[4]; Bcl-xL overexpressing Ramos HA-BclxL cells,not sensitized
same,chemosensitization,[4]; rituximab-resistant Ramos RR1 cells,cannot be chemosensitized
same,p38MAPK signaling pathway,[5],inhibition
same,sensitization to CH-11-induced apoptosis,"[6]; 2F7, Ramos and Raji, 20 μg/ml",sensitized the cells to CH-11 (FasL agonist mAb)-induced apoptosis and synergy was achieved
same,sensitization to CH-11-induced apoptosis,[6]; B-NHL cell lines (Example 6),sensitization to CH-11-induced apoptosis
same,YY1 expression,[7],inhibited
same,sensitization to chemotherapy,[8],sensitizes
same,YY1 activity,[9]; B-NHL cell lines (Example 6),Inhibition of YY1 activity
same,YY1 activity,[9]; NHL B cell lines (Example 9),inhibited
same,sensitization to Fas-induced apoptosis,[10],sensitizes
"COc1cccc2c1C(=O)c1c(O)c3c(c(O)c1C2=O)C[C@@](O)(C(=O)CO)C[C@@H]3O[C@H]1C[C@H](N)[C@H](O)[C@H](C)O1 [ADR, doxorubicin hydrochloride]",luciferase activity,[11],significantly augmented luciferase activity
CC[C@]1(O)C[C@H]2CN(CCc3c([nH]c4ccccc34)[C@@](C(=O)OC)(c3cc4c(cc3OC)N(C=O)[C@H]3[C@@](O)(C(=O)OC)[C@H](OC(C)=O)[C@]5(CC)C=CCN6CC[C@]43[C@@H]65)C2)C1 [vincristine],YY1 expression,[12],significantly abrogated or diminished YY1 expression
"NCCN(CCN)/[N+]([O-])=N/O [DETANONOate, 3,3-bis(aminoethyl)-1-hydroxy-2-oxo-*1-triazene]",Fas expression,[3]; B-NHL cell lines (Example 6),upregulation of Fas expression
same,DR5 expression,[13],significant upregulation of DR5 expression
same,sensitization to CH-11-induced apoptosis,[6]; B-NHL cell lines (Example 6),sensitization to CH-11-induced apoptosis
same,sensitization to TRAIL-mediated apoptosis,[14],sensitized
same,YY1 DNA-binding activity,[15],inhibited
same,sensitization of TRAIL-resistant CaP cell lines,[16],can be sensitized
same,YY1 activity,[9]; B-NHL cell lines (Example 6),Inhibition of YY1 activity
same,NF-κB DNA-binding activity,[17],inhibited
same,YY1 expression,[18],inhibited YY1 expression
same,sensitization to Fas ligand-mediated apoptosis,[19],sensitized
"[NH2][Pt]([NH2])([Cl])[Cl] [CDDP, cisplatin]",luciferase activity,[11],significantly augmented luciferase activity
"COc1cc2c(cc1O)CC[C@@H]1[C@@H]2CC[C@]2(C)[C@@H](O)CC[C@@H]12 [2-methoxyestradiol, 2-Methoxyestradiol]",YY1 expression,[18],marked reduction
same,YY1 activity (luciferase reporter assay),[20],marked reduction
